Assay results taken from PMC12263422, “Cryo-EM structure of the human THIK-1 K2P K^+ channel reveals a lower Y gate regulated by lipids and anesthetics” (Nature Structural & Molecular Biology, 2025).
Values joined by “and” are separate entries in the source; they are usually repeats but may differ in a detail not shown here. Identical values can stand only once.

Target: T1, THIK-1 T237A (Homo sapiens, UniProt Q9HB14, T237A)
T1 construct: expressed in transfected cells; host or cells: Xenopus oocytes (mRNA injection)
T1 sequence (Q9HB14 1-408 T237A): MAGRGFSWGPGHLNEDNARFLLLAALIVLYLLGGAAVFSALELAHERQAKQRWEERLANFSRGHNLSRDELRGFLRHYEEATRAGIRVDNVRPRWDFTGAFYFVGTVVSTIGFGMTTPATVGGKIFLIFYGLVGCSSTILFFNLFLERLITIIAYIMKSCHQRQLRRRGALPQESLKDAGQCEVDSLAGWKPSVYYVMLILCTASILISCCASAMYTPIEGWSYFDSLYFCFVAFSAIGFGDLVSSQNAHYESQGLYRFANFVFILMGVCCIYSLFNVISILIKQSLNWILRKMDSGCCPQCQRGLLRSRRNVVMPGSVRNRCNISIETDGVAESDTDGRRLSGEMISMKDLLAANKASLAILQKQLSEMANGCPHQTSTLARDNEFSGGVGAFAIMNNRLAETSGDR
Test: Inside-out excised patch recordings, oocytes, THIK-1 T237A mutant
Type: cell-based
Text: Human K2P13.1 THIK-1 (GenBank accession number: NM_022054) and human K2P12.1 THIK-2 (NM_022055.1) were used in this study. For functional expression studies, the respective K^+ channel subtype coding sequences were subcloned into the oocyte expression vector pSGEM or the dual-purpose expression vector pFAW[41] and verified by sequencing. All mutant channels were obtained by site-directed mutagenesis and verified by sequencing. To increase surface expression and macroscopic currents, measurements of THIK-2 channels used a mutated ER retention motif, (R11A R12A R14A R15A R16A; THIK-2*)[20]. Vector DNA was linearized with NheI or MluI, and mRNA was synthesized in vitro using the SP6 or T7 AmpliCap Max High Yield Message Maker Kit (Cellscript, USA) or HiScribe T7 ARCA mRNA Kit (New England Biolabs).
Two-electrode voltage–clamp (TEVC) studies were performed in Xenopus oocytes. All animal use conformed to the Guide for the Care and Use of Laboratory Animals (NIH Publication 85–23), and all experiments using Xenopus toads were approved by the local ethics panels. Oocytes were stored at 17 °C in ND96 recording solution composed of (in mM): 96 NaCl, 2 KCl, 1.8 CaCl2, 1 MgCl2, 5 HEPES (pH 7.5 adjusted with NaOH and HCl), supplemented with Na-pyruvate (275 mg L^–1), theophylline (90 mg L^–1) and gentamicin (50 mg L^–1). Oocytes were injected with 1 ng mRNA for WT or mutant channels, and were incubated for 24–48 h at 17 °C. Two-electrode voltage clamp recordings were then performed as previously described[42],[43]. For macroscopic patch–clamp measurements, oocytes were obtained as described above incubated at 17 °C in a solution containing (mM): 54 NaCl, 30 KCl, 2.4 NaHCO3, 0.82 MgSO4 ×7 H2O, 0.41 CaCl2, 0.33 Ca(NO3)2 ×4 H2O and 7.5 TRIS (pH 7.4 adjusted with NaOH and HCl) for 1–4 days before use. Excised patch recordings in inside-out configuration conditions were performed at room temperature. Patch pipettes were made from thick-walled borosilicate glass GB 200TF-8P (Science Products), had resistances of 0.2–0.5 MΩ (tip diameter, 10–25 µm) and filled with a pipette solution (in mM): 120 KCl, 10 HEPES and 3.6 CaCl2 (pH 7.4 adjusted with KOH and HCl). Intracellular bath solutions and compounds were applied to the cytoplasmic side of excised patches for the various K^+ channels through a gravity flow multi-barrel pipette system. The intracellular solution had the following composition (in mM): 120 KCl, 10 HEPES, 2 EGTA and 1 pyrophosphate (pH adjusted with KOH and HCl). Currents were recorded with an EPC10 amplifier (HEKA Electronics) and sampled at 10 kHz or higher, with filtering set to 3 kHz (–3 dB) or higher, as appropriate for sampling rate. For measurements of GPCR activation, whole-cell currents were recorded for THIK-1 in transiently transfected HEK-293 cells. Cells were stimulated by a ramp protocol between −100 and +60 mV (holding potential, −80 mV). The pipette solution was composed of (in mM): 140 KCl, 2 MgCl2, 1 CaCl2, 2.5 EGTA and 10 HEPES (pH 7.3 adjusted with KOH and HCl). The extracellular bath solution had the following composition (in mM): 135 NaCl, 5 KCl, 2 MgCl2, 2 CaCl2, 10 glucose and 10 HEPES pH (pH 7.3 adjusted with NaOH and HCl). Oxotremorine M (Oxo-M) was added to extracellular bath solution to obtain the final concentration. Single-channel currents were recorded with an Axopatch 200B amplifier through a Digidata 1440A digitizer (Molecular Devices). Data were filtered at 2 kHz and recorded at a 200-kHz sampling rate with the program Clampex (Molecular Devices). Pipette solution and bath solution for cell-attached recordings contained (in mM): 140 KCl, 2 MgCl2, 1 CaCl2 and 10 HEPES (pH 7.4 adjusted with KOH and HCl). For inside-out recordings, the bath solution contained (in mM): 140 KCl, 2 MgCl2, 1 CaCl2 and 10 HEPES (pH 7.2 adjusted with KOH and HCl). All experiments were conducted at room temperature. […]

FC(F)OC(Cl)C(F)(F)F (stereo not drawn) [Isoflurane, isoflurane]
Inhibition (%) (4.9 mM Isoflurane, T237A, individual recordings): 17.406% and 8.395% and 11.371% and 16.439% and 18.927% and 20.492% and 11.299% | inhibition at 242 µM (isoflurane 0.242 mM, THIK-1 T237A): 3.32% | inhibition at 485 µM (isoflurane 0.485 mM, THIK-1 T237A): 6.3% | inhibition at 2420 µM (isoflurane 2.42 mM, THIK-1 T237A): 10.5% | inhibition at 4850 µM (isoflurane 4.85 mM, THIK-1 T237A): 14.9% | inhibition at 24200 µM (isoflurane 24.2 mM, THIK-1 T237A): 41.2%

FCOC(C(F)(F)F)C(F)(F)F [Sevoflurane, sevoflurane]
Inhibition (%) (0.24 mM Sevoflurane, T237A, individual recordings): 3.46% and 13.30% and 10.43% and 14.31% and 9.40% and 9.31% | inhibition at 240 µM (0.24 mM Sevoflurane, T237A, mean): 10% | inhibition at 23 µM (THIK-1 T237A, 0.023 mM sevoflurane): 2.46% | inhibition at 47 µM (THIK-1 T237A, 0.047 mM sevoflurane): 5.91% | inhibition at 468 µM (THIK-1 T237A, 0.468 mM sevoflurane): 21.7% | inhibition at 2340 µM (THIK-1 T237A, 2.34 mM sevoflurane): 65.6%

FC(F)(F)C(Cl)Br (stereo not drawn) [halothane]
Inhibition (%) (3.0 mM halothane, T237A, individual recordings): 33.289% and 24.219% and 32.586% and 20.723% and 17.184% and 21.968% and 14.425% and 17.317% and 20.857% and 12.818% and 13.953% and 26.198% and 19.691% and 2.253% and 19.772% and 18.717% and 25.052% and 20.656% and 33.770% and 18.734% and 25.692% and 28.421% and 33.333% | inhibition at 152 µM (halothane 0.152 mM, THIK-1 T237A): 2.14% | inhibition at 304 µM (halothane 0.304 mM, THIK-1 T237A): 5.74% | inhibition at 1520 µM (halothane 1.52 mM, THIK-1 T237A): 14% | inhibition at 3040 µM (halothane 3.04 mM, THIK-1 T237A): 21.8% | inhibition at 15200 µM (halothane 15.2 mM, THIK-1 T237A): 61.5%

CCCCC[N+](CCCCC)(CCCCC)CCCCC [TPenA, tetrapentylammonium]
IC50 (TPenA IC50, T237A mutant): 751 ± 69 µM | IC50 (TPenA IC50, THIK-1 T237A, individual recordings): 1130 µM and 808 µM and 597 µM and 535 µM and 580 µM and 782 µM and 1030 µM and 536 µM and 917 µM and 590 µM | IC50 (TPenA IC50, THIK-1 T237A, mean): 751 µM
